Laboratory results taken from PubChem BioAssay AID330 (DTP/NCI, 2004).
Several values for one entry are separate records, joined by “and”; a condition that tells them apart may be missing. Equal values may be shown once. Toxic doses and inconclusive results are not listed.

Test system: P388 leukemia ip, CD2F1 mice, survival T/C
Experiment: NCI In Vivo Anticancer Drug Screen. Data for tumor model P388 Leukemia (intraperitoneal) in CD2F1 (CDF1) mice
Settings: endpoint: median survival time, higher = longer survival
In short: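 Mice carrying the transplanted tumor received test compound or vehicle. Survival was recorded in each group, and the value is the treated-group measurement divided by that of the vehicle-treated control group.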

[1] = dose: 50.0 mg/kg/injection, schedule: Q01DX005 (ip), vehicle: Klucel (hydroxypropylcellulose) (HPC)
[2] = dose: 100.0 mg/kg/injection, schedule: Q01DX005 (ip), vehicle: Klucel (hydroxypropylcellulose) (HPC)
[3] = dose: 200.0 mg/kg/injection, schedule: Q01DX005 (ip), vehicle: Klucel (hydroxypropylcellulose) (HPC)
[4] = dose: 50.0 mg/kg/injection, schedule: Q01DX009 (ip), vehicle: Klucel (hydroxypropylcellulose) (HPC)
[5] = dose: 100.0 mg/kg/injection, schedule: Q01DX009 (ip), vehicle: Klucel (hydroxypropylcellulose) (HPC)
[6] = dose: 100.0 mg/kg/injection, schedule: Q04DX002 (ip), vehicle: saline with Tween-80
[7] = dose: 200.0 mg/kg/injection, schedule: Q04DX002 (ip), vehicle: saline with Tween-80
[8] = dose: 400.0 mg/kg/injection, schedule: Q04DX002 (ip), vehicle: saline with Tween-80
[9] = dose: 50.0 mg/kg/injection, schedule: Q01DX009 (ip), vehicle: saline with Tween-80
[10] = dose: 100.0 mg/kg/injection, schedule: Q01DX009 (ip), vehicle: saline with Tween-80
[11] = dose: 200.0 mg/kg/injection, schedule: Q01DX009 (ip), vehicle: saline with Tween-80
[12] = dose: 50.0 mg/kg/injection, schedule: Q01DX005 (ip), vehicle: saline with Tween-80
[13] = dose: 100.0 mg/kg/injection, schedule: Q01DX005 (ip), vehicle: saline with Tween-80
[14] = dose: 200.0 mg/kg/injection, schedule: Q01DX005 (ip), vehicle: saline with Tween-80

`O=C(Nc1ccc(O)c2c1C(=O)c1ccccc1C2=O)Oc1ccccc1` was tested, and the T/C [1] was 101 % of control, the T/C [2] was 102 % of control and the T/C [3] was 99 % of control.
For `Oc1ccc(C2(c3ccc(O)cc3)C3CC4CC(C3)CC2C4)cc1`, the T/C [4] was 104 % of control, the T/C [5] was 103 % of control and the T/C (dose: 200.0 mg/kg/injection, schedule: Q01DX009 (ip), vehicle: Klucel (hydroxypropylcellulose) (HPC)) was 100 % of control.
With `CC(O)(CC(=O)O)CC(=O)O` the T/C (dose: 25.0 mg/kg/injection, schedule: Q01DX005 (ip), vehicle: water) was 101 % of control, the T/C (dose: 50.0 mg/kg/injection, schedule: Q01DX005 (ip), vehicle: water) was 100 % of control and the T/C (dose: 100.0 mg/kg/injection, schedule: Q01DX005 (ip), vehicle: water) was 95 % of control. For the same compound, the T/C (dose: 200.0 mg/kg/injection, schedule: Q01DX005 (ip), vehicle: water) was 90 % of control and the T/C (dose: 400.0 mg/kg/injection, schedule: Q01DX005 (ip), vehicle: water) was 92 % of control.
With `COc1ccc(/C=N/Nc2nnc3c(n2)[nH]c2ccc(Br)cc23)cc1` the T/C [6] was 100 % of control, the T/C [7] was 109 % of control and the T/C [8] was 110 % of control.
With `O=C1CCC2(CC(Br)C(=O)c3ccccc32)C(=O)N1` (centres undefined) the T/C (dose: 60.0 mg/kg/injection, schedule: Q01DX005 (ip), vehicle: Klucel (hydroxypropylcellulose) (HPC)) was 113 % of control and the T/C (dose: 120.0 mg/kg/injection, schedule: Q01DX005 (ip), vehicle: Klucel (hydroxypropylcellulose) (HPC)) was 113 % of control.
In the case of `C[n+]1ccc(C#N)c2ccccc21`, the T/C (dose: 3.75 mg/kg/injection, schedule: Q01DX009 (ip), vehicle: saline with Tween-80) is reported as 95 % of control, the T/C (dose: 7.5 mg/kg/injection, schedule: Q01DX009 (ip), vehicle: saline with Tween-80) is reported as 109 % of control and the T/C (dose: 15.0 mg/kg/injection, schedule: Q01DX009 (ip), vehicle: saline with Tween-80) is reported as 118 % of control.
In the case of `COc1cc(/C=C/C(=O)O)cc(OC)c1`, the T/C [1] is reported as 103 % of control, the T/C [2] is reported as 103 % of control and the T/C [3] is reported as 109 % of control.
For `NC(=S)c1cccc(C2Nc3ccccc3O2)c1` (centres undefined), the T/C [9] was 94 % of control, the T/C [10] was 104 % of control and the T/C [11] was 104 % of control.
In the case of `Cc1ccc([Se]CCBr)cc1`, the T/C (dose: 25.0 mg/kg/injection, schedule: Q01DX001 (ip), vehicle: saline) is reported as 108 % of control, the T/C (dose: 50.0 mg/kg/injection, schedule: Q01DX001 (ip), vehicle: saline) is reported as 101 % of control and the T/C (dose: 100.0 mg/kg/injection, schedule: Q01DX001 (ip), vehicle: saline) is reported as 96 % of control.
In the case of `NC(CSC(c1ccccc1)(c1ccccc1)c1ccccc1)C(=O)O` (centres undefined), the T/C (dose: 1.56 mg/kg/injection, schedule: Q01DX009 (ip), vehicle: saline with Tween-80) is reported as 108 % of control, the T/C (dose: 3.12 mg/kg/injection, schedule: Q01DX009 (ip), vehicle: Klucel (hydroxypropylcellulose) (HPC)) is reported as 86 % of control and the T/C (dose: 6.25 mg/kg/injection, schedule: Q01DX009 (ip), vehicle: Klucel (hydroxypropylcellulose) (HPC)) is reported as 121 % of control and 90 % of control. The T/C (dose: 6.25 mg/kg/injection, schedule: Q01DX009 (ip), vehicle: saline with Tween-80) was 119 % of control, the T/C (dose: 6.25 mg/kg/injection, schedule: Q01DX009 (ip), vehicle: water) was 110 % of control and 118 % of control and the T/C (dose: 12.5 mg/kg/injection, schedule: Q01DX009 (ip), vehicle: Klucel (hydroxypropylcellulose) (HPC)) was 92 % of control. For the same compound, the T/C (dose: 12.5 mg/kg/injection, schedule: Q01DX009 (ip), vehicle: water) was 118 % of control, the T/C (dose: 20.0 mg/kg/injection, schedule: Q01DX001 (ip), vehicle: water) was 104 % of control and the T/C (dose: 25.0 mg/kg/injection, schedule: Q01DX009 (ip), vehicle: Klucel (hydroxypropylcellulose) (HPC)) was 163 % of control. The T/C (dose: 25.0 mg/kg/injection, schedule: Q01DX009 (ip), vehicle: water) was 168 % of control, the T/C (dose: 25.0 mg/kg/injection, schedule: Q01DX009 (oral), vehicle: saline with Tween-80) was 123 % of control and the T/C (dose: 40.0 mg/kg/injection, schedule: Q01DX001 (ip), vehicle: water) was 111 % of control. For the same compound, the T/C (dose: 40.0 mg/kg/injection, schedule: Q01DX009 (ip), vehicle: water) was 168 % of control and 186 % of control, the T/C [4] was 192 % of control and the T/C [9] was 180 % of control [middle of 5 runs]. The T/C (dose: 50.0 mg/kg/injection, schedule: Q01DX009 (ip), vehicle: water) was 159 % of control and 163 % of control and 183 % of control, the T/C (dose: 50.0 mg/kg/injection, schedule: Q01DX009 (oral), vehicle: saline with Tween-80) was 119 % of control and the T/C (dose: 66.0 mg/kg/injection, schedule: Q04DX003 (ip), vehicle: Klucel (hydroxypropylcellulose) (HPC)) was 225 % of control. For the same compound, the T/C (dose: 80.0 mg/kg/injection, schedule: Q01DX001 (ip), vehicle: water) was 111 % of control, the T/C [5] was 100 % of control and the T/C (dose: 100.0 mg/kg/injection, schedule: Q01DX009 (oral), vehicle: saline with Tween-80) was 153 % of control. The T/C (dose: 100.0 mg/kg/injection, schedule: Q04DX003 (ip), vehicle: Klucel (hydroxypropylcellulose) (HPC)) was 175 % of control and the T/C [11] was 167 % of control and 175 % of control.
`Cc1nc2ccc(O)cc2c(C(=O)O)c1C(=O)O` was tested, and the T/C [12] was 100 % of control, the T/C [13] was 96 % of control and the T/C [14] was 104 % of control.
`COc1cccc(N2N=NCC2O)c1` (centres undefined) was tested, and the T/C (dose: 60.0 mg/kg/injection, schedule: Q01DX005 (ip), vehicle: saline with Tween-80) was 104 % of control, the T/C (dose: 120.0 mg/kg/injection, schedule: Q01DX005 (ip), vehicle: saline with Tween-80) was 102 % of control and the T/C (dose: 240.0 mg/kg/injection, schedule: Q01DX005 (ip), vehicle: saline with Tween-80) was 104 % of control.
`CC(C)(C)c1ccc(-c2nnc(C(F)(F)F)nn2)cc1` was tested, and the T/C [9] was 100 % of control, the T/C [10] was 100 % of control and the T/C [11] was 108 % of control.
In the case of `Cc1cc(O)ccc1Nc1ccc(N(CCCl)CCCl)cc1`, the T/C (dose: 200.0 mg/kg/injection, schedule: Q04DX003 (ip), vehicle: Klucel (hydroxypropylcellulose) (HPC)) is reported as 166 % of control and the T/C (dose: 400.0 mg/kg/injection, schedule: Q04DX003 (ip), vehicle: Klucel (hydroxypropylcellulose) (HPC)) is reported as 154 % of control.
For `CN(C)c1ccc(C(=C2C=CC(=[N+](C)C)C=C2)c2ccc(N(C)C)cc2)cc1` (tested in a mixture with another compound), the T/C (dose: 0.62 mg/kg/injection, schedule: Q01DX009 (ip), vehicle: saline with Tween-80) was 122 % of control and the T/C (dose: 2.5 mg/kg/injection, schedule: Q01DX009 (ip), vehicle: saline with Tween-80) was 120 % of control.
In the case of `COC(=O)c1ccc(C)c(N)c1`, the T/C [12] is reported as 102 % of control, the T/C [13] is reported as 104 % of control and the T/C [14] is reported as 102 % of control.
`Cc1ccc(-c2n[nH]c(=O)c(C#N)c2-c2ccc(C)cc2)cc1` was tested, and the T/C [6] was 88 % of control and the T/C [8] was 88 % of control.
For `O=C(NCCCNC(=O)C12CC3CC(CC(C3)C1)C2)C12CC3CC(CC(C3)C1)C2`, the T/C [12] was 98 % of control, the T/C [13] was 92 % of control and the T/C [14] was 100 % of control.
For `CC1(C)CNC(=O)C2=C(O1)C(=O)OC2`, the T/C [6] was 100 % of control, the T/C [7] was 100 % of control and the T/C [8] was 103 % of control.
`NC(c1ccccc1)c1cccs1` (centres undefined) was tested, and the T/C [1] was 100 % of control and the T/C [2] was 105 % of control.
For `Cc1cc(C(C#N)c2ccc(Cl)cc2)c(Cl)cc1NC(=O)c1cc(I)cc(I)c1O` (centres undefined), the T/C (dose: 6.25 mg/kg/injection, schedule: Q01DX005 (ip), vehicle: saline with Tween-80) was 102 % of control, the T/C (dose: 12.5 mg/kg/injection, schedule: Q01DX005 (ip), vehicle: saline with Tween-80) was 94 % of control and the T/C (dose: 25.0 mg/kg/injection, schedule: Q01DX005 (ip), vehicle: saline with Tween-80) was 88 % of control.
For `CC(C)(C)C(=O)CC(=O)C(C)(C)C.CC(C)(C)C(=O)CC(=O)C(C)(C)C.[Cu]`, the T/C (dose: 4.75 mg/kg/injection, schedule: Q01DX009 (ip), vehicle: saline with Tween-80) was 104 % of control, the T/C (dose: 9.5 mg/kg/injection, schedule: Q01DX009 (ip), vehicle: saline with Tween-80) was 95 % of control and the T/C (dose: 19.0 mg/kg/injection, schedule: Q01DX009 (ip), vehicle: saline with Tween-80) was 95 % of control.
For `FC(F)(F)c1ccc2[nH]c3c(c2c1)CCCC3`, the T/C (dose: 100.0 mg/kg/injection, schedule: Q01DX001 (ip), vehicle: saline with Tween-80) was 102 % of control, the T/C (dose: 200.0 mg/kg/injection, schedule: Q01DX001 (ip), vehicle: saline with Tween-80) was 102 % of control and the T/C (dose: 400.0 mg/kg/injection, schedule: Q01DX001 (ip), vehicle: saline with Tween-80) was 103 % of control.
`Cn1cc2c(c1-c1ccccc1)[n+](=O)c1ccccc1n2[O-]` was tested, and the T/C [12] was 94 % of control, the T/C [13] was 91 % of control and the T/C [14] was 95 % of control.
